Test results published in PubChem BioAssay AID549 (SRMLSC, 2006).
Active and inactive are the calls of the source.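 How the source made its calls: active means clearly stronger inhibition of phosphomevalonate kinase than of the coupling enzymes alone in a parallel counterscreen; inactive means the rest.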

Molecular target: not listed separately
Test: phosphomevalonate kinase inhibition IC50 – biochemical, mevalonate pathway, coupling enzyme counter-screen, dose response (AID 549)
Settings: PMK enzyme, PK/LDH coupled NADH absorbance 340 nm; measured here: coupling enzymes counter-screen (hexokinase)

Row | Structure (SMILES) | IC50 [µM]
1 | CCOC(=O)N1C(=O)c2cc(OC)ccc2S1(=O)=O | 18.6
2 | CCOC(=O)C1=C(C)NC(=O)NC1c1c(C)nn(-c2ccccc2)c1Cl (stereo unspecified) | 3.54
3 | O=c1c2ccccc2[se]n1-c1ccccc1 | 73.1
4 | CCOC(=O)c1cc2c(=O)n3cccc(C)c3nc2n(CCCOC)c1=NC(=O)c1cccnc1 | 13.6
5 | COc1cccc(OC)c1-c1nn2c(-c3cc(-c4ccccc4)n[nH]3)nnc2s1 | 42.7

Molecular target: phosphomevalonate kinase (Streptococcus pneumoniae D39)
Test: as above
Settings: PMK enzyme, PK/LDH coupled NADH absorbance 340 nm

Row | Structure (SMILES) | IC50 | outcome
6 | CCOC(=O)N1C(=O)c2cc(OC)ccc2S1(=O)=O | inactive | –
7 | CCOC(=O)C1=C(C)NC(=O)NC1c1c(C)nn(-c2ccccc2)c1Cl (stereo unspecified) | inactive | –
8 | O=c1c2ccccc2[se]n1-c1ccccc1 | inactive | –
9 | O=C(CSc1nc(-c2ccccc2)cs1)N1CCN(C(=O)c2ccco2)CC1 | – | inactive
10 | CC(OC(=O)c1cccs1)C(=O)NCC1CCCO1 (stereo unspecified) | – | inactive
11 | CCOC(=O)c1cnc(SCC(=O)N2CCN(C(=O)c3ccco3)CC2)nc1N | – | inactive
12 | CCN=c1sc(C(=O)NCCc2ccccc2)cc(=O)n1CC | – | inactive
13 | O=C(c1n[nH]c(=O)c2ccccc12)N1CCN(C2c3ccccc3-c3ccccc32)CC1 | – | inactive
14 | CCOc1ccc(C2c3c(oc4cc(C)c(C)cc4c3=O)C(=O)N2CCCN(C)C)cc1OC (stereo unspecified) | – | inactive
15 | CS(=O)(=O)N1CCCC(C(=O)NCc2ccccn2)C1 (stereo unspecified) | – | inactive
16 | CS(=O)(=O)N1CCCC(C(=O)NCCc2ccc(Cl)cc2)C1 (stereo unspecified) | – | inactive
17 | CCC(Sc1nccn1C)C(=O)Nc1cccc2ccccc12 (stereo unspecified) | – | inactive
18 | CCCOc1ccc(-c2nnn(CC(=O)Nc3cccc(C(=O)OC)c3)n2)cc1 | – | inactive
19 | COc1ccc(-c2coc3c(CN4CCCCC4)c(O)c(CN4CCCCC4)c(O)c3c2=O)cc1 | – | inactive
20 | COc1ccc(CNC(=O)C2CCN(S(=O)(=O)N3CCOCC3)CC2)cc1 | – | inactive
21 | O=C(c1cc2nc(-c3ccco3)cc(C(F)(F)F)n2n1)N1CCc2ccccc2C1 | – | inactive
22 | CCOC(=O)CCn1c2nc(C)cc(C)c2c(=O)n1-c1ccccc1 | – | inactive
23 | CC(C)OC(=O)CCC1(C(=O)O)CCC(=O)NC1 (stereo unspecified) | – | inactive
24 | CCOC(=O)c1cc2c(=O)n3cccc(C)c3nc2n(CCCOC)c1=NC(=O)c1cccnc1 | inactive | –
25 | O=C(Cc1coc(-c2ccc(F)cc2)n1)N1CCOCC1 | – | inactive
26 | Cc1cc2c(C(F)(F)F)cc(=O)oc2c2c1NCCC2 | – | inactive
27 | CCOc1cc(C(=O)NCc2nnc(SCC(=O)OC)n2C)cc(OCC)c1OCC | – | inactive
28 | CC(C)C(C(=O)NCC1CCCO1)N(Cc1ccco1)C(=O)CNS(=O)(=O)c1ccc(F)cc1 (stereo unspecified) | – | inactive
29 | O=C(NC1CCCCC1)C1CC(=O)N(c2ccc(Cl)cc2)C1 (stereo unspecified) | – | inactive
30 | CCOC(=O)C1CCCN(C(=O)C2CCCN(S(C)(=O)=O)C2)C1 (stereo unspecified) | – | inactive
31 | O=C(CN(C(=O)CNS(=O)(=O)c1ccccc1)C1CCCC1)NCc1ccco1 | – | inactive

Row | Structure (SMILES) | IC50 | outcome
32 | COc1ccc2c(c1OC)CN(C)CCc1cc3c(cc1C(O)C2)OCO3 (stereo unspecified) | – | inactive
33 | CCOCC(=O)NC1CCSC1=O (stereo unspecified) | – | inactive
34 | CCOC(=O)c1ccc(NC(=O)CSc2nc(C)cc(=O)[nH]2)cc1 | – | inactive
35 | COc1ccc(C(c2nnnn2CC2CCCO2)N2CCN(c3ccccc3)CC2)cc1 (stereo unspecified) | – | inactive
36 | O=C(O)C1=C(C(=O)Nc2ccc(F)c(Cl)c2)CCCC1 | – | inactive
37 | Cc1nnc(SCC(=O)Nc2nsc(-c3ccccc3)n2)s1 | – | inactive
38 | Cc1nnc(SCC(=O)N2CC(=O)Nc3ccccc32)n1-c1ccccc1 | – | inactive
39 | COc1ccc(Cn2nnnc2C(c2ccccn2)N2CCN(c3cc(Cl)ccc3C)CC2)cc1 (stereo unspecified) | – | inactive
40 | COc1ccc(CNC(=O)C2CCN(S(=O)(=O)c3cccc4cccnc34)CC2)cc1 | – | inactive
41 | CCNC(=O)CN(c1ccc(C)cc1)S(=O)(=O)c1ccc(SC)cc1 | – | inactive
42 | Cn1cnnc1SCC(=O)n1c2ccccc2c2ccccc21 | – | inactive
43 | CC(C)(C)c1ccccc1OCCCCCNCCO | – | inactive
44 | CCn1c(COc2ccccc2C)nnc1SCC(=O)N1CCCCC1 | – | inactive
45 | COc1ccc(-n2c(SCc3nnc(-c4ccccc4)o3)nnc2-c2ccccc2)cc1 | – | inactive
46 | O=C(c1ccc(CS(=O)(=O)Cc2ccc(Cl)cc2)o1)N1CCCC1 | – | inactive
47 | C=CCSc1nnc(Cn2c(=O)sc3ccccc32)n1C | – | inactive
48 | Cc1nnc(SCc2ccccc2)n1N | – | inactive
49 | CCS(=O)(=O)N1CCC(C(=O)NCCc2ccccc2)CC1 | – | inactive
50 | O=C(CNCC1CCCO1)Nc1ccccc1N1CCOCC1 (stereo unspecified) | – | inactive
51 | COc1cccc(OC)c1-c1nn2c(-c3cc(-c4ccccc4)n[nH]3)nnc2s1 | inactive | –
52 | COc1ccc(Br)cc1CNC(=O)C1CCN(S(=O)(=O)N2CCCC2)CC1 | – | inactive
53 | O=C(C1CCN(Cc2ccc(OCc3ccccc3)cc2)CC1)N1CCCC1 | – | inactive
54 | Cc1ccc(Cl)cc1N1CCN(Cc2nnnn2C2CCCCC2)CC1 | – | inactive
55 | CCOCCCNC(=O)C1CCN(S(=O)(=O)N2CC(C)CC(C)C2)CC1 (stereo unspecified) | – | inactive
56 | CCc1nnc(NC(=O)c2cccs2)s1 | – | inactive
